Measurements reported in patent US20260217767A1, “NOVEL A4B7 THIOETHER PEPTIDE DIMER ANTAGONISTS” (Protagonist Therapeutics, Inc., priority 2014, published 2026).
*1 amine or outer side, *2 acyl side, *3 side chain or, on linkers, in order; H or OH if unused. Where a SMILES comes first, the peptide text is derived from it. Bridges are numbered along the chain shown (N, C = ends). Roman numbers before positions name the chains, in order. [ ]: non-standard residue; d: D form. 2Nal = N[C@@H](Cc1ccc2ccccc2c1)C(=O)O; Diglycolyl = O=C(COCC(=O)[*:2])[*:1]; NMeR = CN[C@@H](CCCNC(=N)N)C(=O)O; X1 = O=C(c1ccccc1C[*:2])[*:1]; Pen = CC(C)(S)[C@H](N)C(=O)O

Columns and labels:
[1] = biological target: T1, RPMI 8866 cells (Homo sapiens, UniProt P13612+P26010); assay: α4β7-MAdCAM Cell Adhesion Assay; assay type: cell-based; conditions: thioether peptide dimers, Table 7; read-out: Cell-Adhesion A4B7
T1 sequence (P13612 34-1032): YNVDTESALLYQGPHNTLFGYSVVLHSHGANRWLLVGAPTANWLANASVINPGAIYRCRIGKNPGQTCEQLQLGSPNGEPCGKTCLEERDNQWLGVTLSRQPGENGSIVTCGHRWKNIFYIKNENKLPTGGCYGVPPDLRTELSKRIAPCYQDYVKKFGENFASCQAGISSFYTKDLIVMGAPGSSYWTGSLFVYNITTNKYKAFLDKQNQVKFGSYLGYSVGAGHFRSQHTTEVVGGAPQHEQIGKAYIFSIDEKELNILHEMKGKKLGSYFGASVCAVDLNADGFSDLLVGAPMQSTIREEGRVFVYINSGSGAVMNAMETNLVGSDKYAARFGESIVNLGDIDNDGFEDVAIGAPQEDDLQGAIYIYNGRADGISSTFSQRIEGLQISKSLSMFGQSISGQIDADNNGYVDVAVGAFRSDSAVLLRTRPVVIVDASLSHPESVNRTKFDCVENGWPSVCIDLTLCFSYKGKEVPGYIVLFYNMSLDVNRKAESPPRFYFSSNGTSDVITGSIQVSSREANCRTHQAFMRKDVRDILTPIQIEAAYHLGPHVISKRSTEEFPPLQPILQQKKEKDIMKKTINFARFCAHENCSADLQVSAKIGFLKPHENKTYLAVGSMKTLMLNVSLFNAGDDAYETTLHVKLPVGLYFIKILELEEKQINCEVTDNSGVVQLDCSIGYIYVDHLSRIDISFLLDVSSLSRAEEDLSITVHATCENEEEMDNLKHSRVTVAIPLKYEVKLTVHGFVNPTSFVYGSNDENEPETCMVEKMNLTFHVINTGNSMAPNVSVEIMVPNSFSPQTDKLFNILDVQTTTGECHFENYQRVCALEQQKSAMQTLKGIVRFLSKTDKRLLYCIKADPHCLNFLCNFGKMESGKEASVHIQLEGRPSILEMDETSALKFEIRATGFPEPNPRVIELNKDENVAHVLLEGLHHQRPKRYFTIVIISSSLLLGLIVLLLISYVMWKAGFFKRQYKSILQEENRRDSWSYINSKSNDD
T1 sequence (P26010 20-798): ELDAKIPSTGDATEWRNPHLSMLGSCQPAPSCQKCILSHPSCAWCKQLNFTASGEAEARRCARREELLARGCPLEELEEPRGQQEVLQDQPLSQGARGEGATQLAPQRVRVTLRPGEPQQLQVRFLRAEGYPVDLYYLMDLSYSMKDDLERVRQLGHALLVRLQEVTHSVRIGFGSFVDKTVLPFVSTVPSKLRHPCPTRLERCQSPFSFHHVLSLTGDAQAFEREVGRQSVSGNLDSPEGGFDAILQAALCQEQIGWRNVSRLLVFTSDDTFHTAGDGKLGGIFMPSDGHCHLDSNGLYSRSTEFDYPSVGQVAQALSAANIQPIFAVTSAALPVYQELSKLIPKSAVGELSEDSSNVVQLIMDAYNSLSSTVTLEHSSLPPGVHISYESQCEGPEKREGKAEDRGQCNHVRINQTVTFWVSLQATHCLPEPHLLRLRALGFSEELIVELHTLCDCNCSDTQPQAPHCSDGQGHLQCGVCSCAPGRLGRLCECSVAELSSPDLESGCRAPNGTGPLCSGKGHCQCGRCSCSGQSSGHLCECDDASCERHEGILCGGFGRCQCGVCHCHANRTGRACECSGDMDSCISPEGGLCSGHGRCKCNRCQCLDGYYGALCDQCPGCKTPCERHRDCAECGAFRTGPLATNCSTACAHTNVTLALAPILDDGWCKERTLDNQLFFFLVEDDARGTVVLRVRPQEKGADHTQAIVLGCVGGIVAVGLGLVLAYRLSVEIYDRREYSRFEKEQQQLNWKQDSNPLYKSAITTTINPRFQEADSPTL
How it was run: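 RPMI 8866 cells (200,000/well) in DMEM with 1 mM MnCl2 and 0.1% BSA were allowed to adhere 30-45 min at 37° C to plates coated with rh MAdCAM-1/Fc (200 ng/well) in presence of serially diluted peptide. After washing, bound cells quantified by MTT, absorbance 570 nm, cell-free background subtracted.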

[2] = Simulated Intestinal Fluid (SIF) Stability Assay; assay type: in vitro ADME; conditions: 37° C.; for half-life: simulated gi fluid, porcine pancreatin
Method: Simulated Intestinal Fluid (SIF) Stability Assay
Studies were carried out in simulated intestinal fluid (SIF) to evaluate intestinal stability of the peptide molecules of the instant invention. To prepare the SIF reagent, blank FASSIF was prepared by dissolving 0.348 g NaOH, 3.954 g sodium phosphate monobasic monohydrate and 6.186 g NaCl in a final volume of 1 liter water (final pH=6.5). To this solution, 24 g porcine pancreatin (Sigma catalog P7545) was added and stirred for 30 minutes (final pancreatin concentration is 2.4%). The solution was filtered through a cheese cloth and a No. 1 Whatman filter, and 10 ml aliquots were stored at −70° C. To run the reaction, a 10 ml aliquot was thawed at 37° C., and 125 μl aliquots were removed and mixed with an equal volume of blank FASSIF. The peptide stock solution (10 mM in 100% DMSO) was diluted 75-fold in blank FASSIF. A 50 μl aliquot of the diluted peptide was combined with 125 μl pancreatin (2.4%) and 125 μl blank FASSIF to yield final concentrations of 1% pancreatin and 22 μM peptide. The reactions were incubated at 37° C., and at various time points 50 μl aliquots were removed and added to 200 μl of quench solution containing 50% acetonitrile, 50% methanol, 5% formic acid, and 1 μg/ml internal standard. The quenched samples were centrifuged at 10,000 rpm for 10 minutes, and the supernatants were analyzed by LCMS/MS. The percent remaining at each time point was calculated based on the peak area response ratio of test to compound to internal standard. Half-lives were calculated by fitting to a first-order exponential decay equation using GraphPad. A small sampling of the results of these studies is provided and discussed herein and in the accompanying figures.

Compound	half-life ([2]; monomers, Table 6)	half-life ([2]; dimers, Table 7)	further results
CC(C)C[C@@H]1NC(=O)[C@H]([C@@H](C)O)NC(=O)[C@H](CC(=O)O)NC(=O)[C@H](CO)NC(=O)[C@H](CCCNC(=N)N)N(C)C(=O)c2ccccc2CSC(C)(C)[C@@H](C(=O)N[C@H](Cc2ccccc2)C(=O)N[C@@H](Cc2ccc3ccccc3c2)C(=O)N[C@H](CCCCNC(=O)COCC(=O)NCCCC[C@@H](NC(=O)[C@H](Cc2ccc3ccccc3c2)NC(=O)[C@@H](Cc2ccccc2)NC(=O)[C@H]2NC(=O)[C@H](CC(C)C)NC(=O)[C@H]([C@@H](C)O)NC(=O)[C@H](CC(=O)O)NC(=O)[C@H](CO)NC(=O)[C@H](CCCNC(=N)N)N(C)C(=O)c3ccccc3CSC2(C)C)C(N)=O)C(N)=O)NC1=O [compound 162] (I: [NMeR]SDTL[Pen][dF][2Nal][dK]-NH2 / II: [NMeR]SDTL[Pen][dF][2Nal][dK]-NH2; linker I:9-II:9 via Diglycolyl; linker I:N-I:6, II:N-II:6 via X1)	–	–	IC50 [1]: 100 to 1000 nM; half-life at 22 μM ([2]; pig, simulated intestinal fluid (SIF) with 1% porcine pancreatin, pH 6.5, porcine pancreatin, dimers, Table 7): > 3 h
CC(C)C[C@@H]1NC(=O)[C@H]([C@@H](C)O)NC(=O)[C@H](CC(=O)O)NC(=O)[C@H](CO)NC(=O)[C@H](CCCNC(=N)N)N(C)C(=O)c2ccccc2CSC(C)(C)[C@@H](C(=O)N[C@@H](Cc2ccccc2)C(=O)N[C@H](CCC(=O)O)C(=O)N[C@H](CCCCN)C(N)=O)NC1=O [compound 65] (HELM PEPTIDE1{[meR].S.D.T.L.[Pen].F.[dE].[dK].[am]}|CHEM1{[O=C(c1ccccc1C[*:2])[*:1]]}$PEPTIDE1,CHEM1,1:R1-1:R1|PEPTIDE1,CHEM1,6:R3-1:R2$$$V2.0)	> 3 h	–	–
CC(C)C[C@@H]1NC(=O)[C@H]([C@@H](C)O)NC(=O)[C@H](CC(=O)O)NC(=O)[C@H](CO)NC(=O)[C@H](CCCNC(=N)N)N(C)C(=O)c2ccccc2CSC(C)(C)[C@@H](C(=O)N[C@@H](Cc2c[nH]c3ccccc23)C(=O)N[C@@H](Cc2ccc(O)cc2)C(=O)N(C)[C@@H](CCCCN)C(N)=O)NC1=O [compound 63] (HELM PEPTIDE1{[meR].S.D.T.L.[Pen].W.Y.[meK].[am]}|CHEM1{[O=C(c1ccccc1C[*:2])[*:1]]}$PEPTIDE1,CHEM1,1:R1-1:R1|PEPTIDE1,CHEM1,6:R3-1:R2$$$V2.0)	> 3 h	–	–
CC(C)C[C@@H]1NC(=O)[C@H]([C@@H](C)O)NC(=O)[C@H](CC(=O)O)NC(=O)[C@H](CO)NC(=O)[C@H](CCCNC(=N)N)N(C)C(=O)c2ccccc2CSC(C)(C)[C@@H](C(=O)N[C@@H](Cc2c[nH]c3ccccc23)C(=O)N[C@H](CCC(=O)O)C(=O)N[C@H](CCCCN)C(N)=O)NC1=O [compound 60] (HELM PEPTIDE1{[meR].S.D.T.L.[Pen].W.[dE].[dK].[am]}|CHEM1{[O=C(c1ccccc1C[*:2])[*:1]]}$PEPTIDE1,CHEM1,1:R1-1:R1|PEPTIDE1,CHEM1,6:R3-1:R2$$$V2.0)	> 3 h	–	–
CC(C)C[C@@H]1NC(=O)[C@H]([C@@H](C)O)NC(=O)[C@H](CC(=O)O)NC(=O)[C@H](CO)NC(=O)[C@H](CCCNC(=N)N)N(C)C(=O)c2ccccc2CSC(C)(C)[C@@H](C(=O)N[C@@H](Cc2c[nH]c3ccccc23)C(=O)N[C@@H](CCC(=O)O)C(=O)N[C@H](CCCCN)C(N)=O)NC1=O [compound 56] (HELM PEPTIDE1{[meR].S.D.T.L.[Pen].W.E.[dK].[am]}|CHEM1{[O=C(c1ccccc1C[*:2])[*:1]]}$PEPTIDE1,CHEM1,1:R1-1:R1|PEPTIDE1,CHEM1,6:R3-1:R2$$$V2.0)	3.1 h	–	–

Continued, in another order:

half-life ([2]; monomers, Table 6)	half-life ([2]; dimers, Table 7)	Compound	further results
2.98 h	–	CCCC[C@@H]1NC(=O)[C@H]([C@@H](C)O)NC(=O)[C@H](CC(=O)O)NC(=O)[C@H](CO)NC(=O)[C@H](CCCNC(=N)N)N(C)C(=O)c2ccccc2CSC(C)(C)[C@@H](C(=O)N[C@@H](Cc2c[nH]c3ccccc23)C(=O)N[C@@H](CCC(=O)O)C(=O)N[C@H](CCCCN)C(N)=O)NC1=O [compound 64] (HELM PEPTIDE1{[meR].S.D.T.[Nle].[Pen].W.E.[dK].[am]}|CHEM1{[O=C(c1ccccc1C[*:2])[*:1]]}$PEPTIDE1,CHEM1,1:R1-1:R1|PEPTIDE1,CHEM1,6:R3-1:R2$$$V2.0)	–
–	< 0.333 h	CC(C)C[C@@H]1NC(=O)[C@H]([C@@H](C)O)NC(=O)[C@H](CC(=O)O)NC(=O)[C@H](CO)NC(=O)[C@H](CCCNC(=N)N)N(C)C(=O)c2ccccc2CSC(C)(C)[C@@H](C(=O)N[C@@H](Cc2c[nH]c3ccccc23)C(=O)N[C@@H](CCC(=O)O)C(=O)N[C@H](CCCCN)C(N)=O)NC1=O [compound 146] (HELM PEPTIDE1{[meR].S.D.T.L.[Pen].W.E.[dK].[am]}|CHEM1{[O=C(c1ccccc1C[*:2])[*:1]]}$PEPTIDE1,CHEM1,1:R1-1:R1|PEPTIDE1,CHEM1,6:R3-1:R2$$$V2.0)	–
–	> 3 h	CC(C)C[C@@H]1NC(=O)[C@H]([C@@H](C)O)NC(=O)[C@H](CC(=O)O)NC(=O)[C@H](CO)NC(=O)[C@H](CCCNC(=N)N)N(C)C(=O)c2ccccc2CSC(C)(C)[C@@H](C(=O)N[C@@H](Cc2c[nH]c3ccccc23)C(=O)N[C@@H](Cc2ccc(O)cc2)C(=O)N(C)[C@@H](CCCCN)C(N)=O)NC1=O [compound 153] (HELM PEPTIDE1{[meR].S.D.T.L.[Pen].W.Y.[meK].[am]}|CHEM1{[O=C(c1ccccc1C[*:2])[*:1]]}$PEPTIDE1,CHEM1,1:R1-1:R1|PEPTIDE1,CHEM1,6:R3-1:R2$$$V2.0)	–
–	< 0.333 h	CCCC[C@@H]1NC(=O)[C@H]([C@@H](C)O)NC(=O)[C@H](CC(=O)O)NC(=O)[C@H](CO)NC(=O)[C@H](CCCNC(=N)N)N(C)C(=O)c2ccccc2CSC(C)(C)[C@@H](C(=O)N[C@@H](Cc2c[nH]c3ccccc23)C(=O)N[C@@H](CCC(=O)O)C(=O)N[C@H](CCCCN)C(N)=O)NC1=O [compound 154] (HELM PEPTIDE1{[meR].S.D.T.[Nle].[Pen].W.E.[dK].[am]}|CHEM1{[O=C(c1ccccc1C[*:2])[*:1]]}$PEPTIDE1,CHEM1,1:R1-1:R1|PEPTIDE1,CHEM1,6:R3-1:R2$$$V2.0)	–
